From patent US12421253B2 (Mirati Therapeutics, Inc., priority 2020, dated 2025) come the findings set out here.

For one assay, the target named is T1, KRas^G12D (Homo sapiens, UniProt P01116, G12D).
T1 construct: […]; biotin (biotinylated); purchased Accelegan Inc
Nature of the assay: KRas binding assay (TR-FRET displacement of Cy5 labelled tracer).

The next assay has as its system H727 cells, pERK. Nature of the assay: Inhibition of KRas phosphorylation of ERK (Cisbio HTRF Advanced pERK assay). The following applies: Homo sapiens, NCI-H727, 3 h, read-out: Inhibition (HTRF IC50 nM) of KRas-mediated Phosphorylation of ERK, H727. The class given is cell-based. The gist of the method: (§1)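 pERK measured by HTRF in lysates from cells treated 3 h with compound, 10 uM top, 3-fold steps, 10 doses, 0.8% DMSO final. Cells (6,000/well, RPMI 10% FBS) had been plated overnight at 37 °C; 0.2 uM trametinib defined minimum signal; antibody detection 2 h at room temperature.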

The next assay deals with MKN1 cells, pERK. The assay is described as above. The class given is cell-based. Conditions: Homo sapiens, MKN-1, 3 h, read-out: Inhibition (HTRF IC50 nM) of KRas-mediated Phosphorylation of ERK, MKN1. The gist of the method: as §1
For a further assay, the system named is H460 cells, pERK. The assay is described as above. The assay is classed as cell-based. The following applies: Homo sapiens, NCI-H460, 3 hrs, read-out: Inhibition (HTRF IC50 nM) of KRas-mediated Phosphorylation of ERK, H460. The gist of the method: as §1
(In general: TR-FRET usually uses a lanthanide donor and a delayed reading to cut background.)

A further assay concerns HCT116 cells, pERK. Described as above. The class given is cell-based. Conditions: Homo sapiens, HCT-116, 3 hrs, read-out: Inhibition (HTRF IC50 nM) of KRas-mediated Phosphorylation of ERK, HCT116. The gist of the method:
as §1

A further assay concerns ASPC1 cells, pERK. Described as above. The class given is cell-based. Conditions: Homo sapiens, ASPC1, 3 h, AsPC-1 cells, read-out: Inhibition (HTRF IC50 nM) of KRas-mediated Phosphorylation of ERK, AsPC-1. The gist of the method: as §1
The next assay relates to A549 cells, pERK. Described as above. The assay is classed as cell-based. Conditions: Homo sapiens, 3 hrs, read-out: Inhibition (HTRF IC50 nM) of KRas-mediated Phosphorylation of ERK, A549. The gist of the method:
as §1

The next assay deals with PSN1 cells, pERK. Described as above. The class given is cell-based. The following applies: Homo sapiens, PSN1, 3 h, read-out: Inhibition (HTRF IC50 nM) of KRas-mediated Phosphorylation of ERK, PSN1. The gist of the method:
as §1

The next assay has as its system H358 cells, pERK. Described as above. The class given is cell-based. Conditions: Homo sapiens, NCI-H358, 3 hrs, read-out: Inhibition (HTRF IC50 nM) of KRas-mediated Phosphorylation of ERK, H358. The gist of the method: as §1
For a further assay, the target named is T2, KRas^G12V (Homo sapiens, UniProt P01116, G12V).
T2 construct: […]; biotin (biotinylated); purchased Accelegan Inc
T2 sequence (P01116 1-169 isoform P01116-2 G12V): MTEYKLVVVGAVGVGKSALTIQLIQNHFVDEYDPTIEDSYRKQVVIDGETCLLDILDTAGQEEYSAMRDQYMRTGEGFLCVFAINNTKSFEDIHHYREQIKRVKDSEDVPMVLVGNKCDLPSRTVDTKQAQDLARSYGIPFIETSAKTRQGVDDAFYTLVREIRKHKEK
The assay can be described thus: KRas binding assay (TR-FRET displacement of Cy5 labelled tracer).

A further assay concerns the target T3, KRas^G12R (Homo sapiens, UniProt P01116, G12R).
T3 construct: […]; biotin (biotinylated); purchased Accelegan Inc
The assay is described as above.

T3 sequence (P01116 1-169 isoform P01116-2 G12R): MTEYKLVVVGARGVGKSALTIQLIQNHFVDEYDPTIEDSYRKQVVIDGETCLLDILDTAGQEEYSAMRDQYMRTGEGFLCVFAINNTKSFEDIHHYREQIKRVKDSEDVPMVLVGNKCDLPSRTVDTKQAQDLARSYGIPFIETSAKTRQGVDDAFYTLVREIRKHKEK
T1 sequence (P01116 1-169 isoform P01116-2 G12D): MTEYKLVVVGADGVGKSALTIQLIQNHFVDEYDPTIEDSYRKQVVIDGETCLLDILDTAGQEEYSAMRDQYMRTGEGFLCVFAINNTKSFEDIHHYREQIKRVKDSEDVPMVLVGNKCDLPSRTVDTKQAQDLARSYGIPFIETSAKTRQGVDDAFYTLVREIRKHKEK
Description for KRas^G12D: (§2) The ability of a compound to bind to KRas was measured using a TR-FRET displacement assay. […] After a 60-minute incubation at room temperature, the reaction was measured using a BMG LABTECH CLARIO star Plus via TR-FRET. […] The POC values were fit to a 4-parameter IC50 equation and the IC50 value reported.
Description for KRas^G12R: as §2
Description for KRas^G12V: as §2

As usually defined, the IC50 is the concentration needed to halve the response being measured. Turning to `O=C1NCC2(CCCN(c3nc(OC[C@@]45CCCN4C[C@H](F)C5)nc4c3CCN(c3cc(O)cc5ccc(F)c(Br)c35)C4)C2)N1` (stereo partly drawn) [Example 216, 7-(7-(8-bromo-7-fluoro-3-hydroxynaphthalen-1-yl)-2-(((2R,7aS)-2-fluorohexahydro-1H-pyrrolizin-7a-yl)methoxy)-5,6,7,8-tetrahydropyrido[3,4-d]pyrimidin-4-yl)-1,3,7-triazaspiro[4.5]decan-2-one], the IC50 was ≤ 2 nM at KRas^G12D; 300 nM in the assay on H727 cells, pERK; 19 nM in the assay on MKN1 cells, pERK; 293 nM in the assay on H460 cells, pERK; 531 nM in the assay on HCT116 cells, pERK; 92 nM in the assay on ASPC1 cells, pERK. The IC50 in the assay on A549 cells, pERK was 206 nM; in the assay with PSN1 cells, pERK, 1260 nM; with H358 cells, pERK, 27 nM; on KRas^G12V, ≤ 2 nM; at KRas^G12R it was 3 nM.

`CCc1c(F)ccc2cc(O)cc(N3CCc4c(nc(OCC5(CN(C)C)CC5)nc4N4CCCC5(C4)NC(=O)NC5=O)C3)c12` (stereo not drawn) [Example 201, 7-(2-((1-((dimethylamino)methyl)cyclopropyl)methoxy)-7-(8-ethyl-7-fluoro-3-hydroxynaphthalen-1-yl)-5,6,7,8-tetrahydropyrido[3,4-d]pyrimidin-4-yl)-1,3,7-triazaspiro[4.5]decane-2,4-dione]: the IC50 was ≤ 2 nM on KRas^G12D; 176 nM with H727 cells, pERK; 49 nM with MKN1 cells, pERK; 26 nM in the assay on H460 cells, pERK; 49 nM with HCT116 cells, pERK; 49 nM in the assay on ASPC1 cells, pERK. Moreover, the IC50 in the assay on A549 cells, pERK is 14 nM; in the assay with PSN1 cells, pERK it was 80.5 nM; with H358 cells, pERK it was 12 nM; on KRas^G12V, ≤ 2 nM; at KRas^G12R, 4 nM.

Take `CCc1c(F)ccc2cc(O)cc(N3CCc4c(nc(OC[C@@]56CCCN5C[C@H](F)C6)nc4N4CCC[C@]5(C4)NC(=O)NC5=O)C3)c12` [Example 196, (R)-7-(7-(8-ethyl-7-fluoro-3-hydroxynaphthalen-1-yl)-2-(((2R,7aS)-2-fluorohexahydro-1H-pyrrolizin-7a-yl)methoxy)-5,6,7,8-tetrahydropyrido[3,4-d]pyrimidin-4-yl)-1,3,7-triazaspiro[4.5]decane-2,4-dione]: the IC50 was ≤ 2 nM at KRas^G12D; 11 nM with H727 cells, pERK; 5 nM in the assay on MKN1 cells, pERK; 2 nM with H460 cells, pERK; 5 nM in the assay with HCT116 cells, pERK; 6 nM with ASPC1 cells, pERK. The IC50 in the assay with A549 cells, pERK is 2 nM; in the assay with PSN1 cells, pERK it was 18 nM; with H358 cells, pERK it was 1 nM; on KRas^G12V it was ≤ 2 nM; at KRas^G12R it was ≤ 2 nM.

`CN(C)C(=O)c1cc2n(n1)CCCN(c1nc(OC[C@@]34CCCN3C[C@H](F)C4)nc3c1CCN(c1cc(O)cc4ccc(F)c(Br)c14)C3)C2` [Example 218, 5-(7-(8-bromo-7-fluoro-3-hydroxynaphthalen-1-yl)-2-(((2R,7aS)-2-fluorohexahydro-1H-pyrrolizin-7a-yl)methoxy)-5,6,7,8-tetrahydropyrido[3,4-d]pyrimidin-4-yl)-N,N-dimethyl-5,6,7,8-tetrahydro-4H-pyrazolo[1,5-a][1,4]diazepine-2-carboxamide]: the IC50 at KRas^G12D was ≤ 2 nM; with H727 cells, pERK, 86 nM; in the assay with MKN1 cells, pERK it was 85 nM; in the assay on H460 cells, pERK it was 845 nM; with HCT116 cells, pERK, 1340 nM; in the assay with ASPC1 cells, pERK, 46 nM. For the same compound, the IC50 in the assay on A549 cells, pERK was 294 nM; in the assay with PSN1 cells, pERK, 6070 nM; in the assay on H358 cells, pERK it was 61 nM; at KRas^G12V, ≤ 2 nM; on KRas^G12R it was ≤ 2 nM.

Take `CCc1c(F)ccc2cc(O)cc(N3CCc4c(nc(OC[C@@]56CCCN5C[C@H](F)C6)nc4N4CCCC5(CNC(=O)N5)C4)C3)c12` (stereo partly drawn) [Example 62, 7-(7-(8-ethyl-7-fluoro-3-hydroxynaphthalen-1-yl)-2-(((2R,7aS)-2-fluorohexahydro-1H-pyrrolizin-7a-yl)methoxy)-5,6,7,8-tetrahydropyrido[3,4-d]pyrimidin-4-yl)-1,3,7-triazaspiro[4.5]decan-2-one]: the IC50 on KRas^G12D is ≤ 2 nM; with H727 cells, pERK, 81 nM; with MKN1 cells, pERK it was 4 nM; in the assay with H460 cells, pERK, 69 nM; in the assay with HCT116 cells, pERK it was 125 nM; in the assay with ASPC1 cells, pERK it was 15 nM. The IC50 in the assay with A549 cells, pERK is 25 nM; with PSN1 cells, pERK, 325 nM; with H358 cells, pERK it was 11 nM; on KRas^G12V it was ≤ 2 nM; on KRas^G12R, ≤ 2 nM.

For `CCc1c(F)ccc2cc(O)cc(N3CCc4c(nc(OCC5(CN(C)C)CC5)nc4N4C[C@@H]5C(=O)NC(=O)[C@@H]5C4)C3)c12` [Example 200, (3aS,6aR)-5-[2-[[1-[(dimethylamino)methyl]cyclopropyl]methoxy]-7-(8-ethyl-7-fluoro-3-hydroxy-1-naphthyl)-6,8-dihydro-5H-pyrido[3,4-d]pyrimidin-4-yl]-3a,4,6,6a-tetrahydropyrrolo[3,4-c]pyrrole-1,3-dione], the IC50 on KRas^G12D was ≤ 2 nM; in the assay on H727 cells, pERK it was 264 nM; in the assay on MKN1 cells, pERK, 27 nM; in the assay with H460 cells, pERK it was 578 nM; in the assay with HCT116 cells, pERK it was 832 nM; with ASPC1 cells, pERK, 62 nM. Besides, the IC50 with A549 cells, pERK was 142 nM; in the assay with PSN1 cells, pERK it was 9110 nM; with H358 cells, pERK, 77 nM; on KRas^G12V, ≤ 2 nM; on KRas^G12R, ≤ 2 nM.

Consider `CCc1c(F)ccc2cc(O)cc(N3CCc4c(nc(OC[C@@]56CCCN5C[C@H](F)C6)nc4N4CCCn5nc(C(=O)N(C)C)cc5C4)C3)c12` [Example 66, 5-(7-(8-ethyl-7-fluoro-3-hydroxynaphthalen-1-yl)-2-(((2R,7aS)-2-fluorohexahydro-1H-pyrrolizin-7a-yl)methoxy)-5,6,7,8-tetrahydropyrido[3,4-d]pyrimidin-4-yl)-N,N-dimethyl-5,6,7,8-tetrahydro-4H-pyrazolo[1,5-a][1,4]diazepine-2-carboxamide], for which the IC50 at KRas^G12D was ≤ 2 nM; with H727 cells, pERK, 5 nM; in the assay with MKN1 cells, pERK, 1 nM; with H460 cells, pERK, 36 nM; in the assay on HCT116 cells, pERK, 62 nM; with ASPC1 cells, pERK it was 1 nM. For the same compound, the IC50 in the assay on A549 cells, pERK was 5 nM; in the assay on H358 cells, pERK it was 2 nM; on KRas^G12V it was ≤ 2 nM; on KRas^G12R it was ≤ 2 nM.

`CCc1c(F)ccc2cc(O)cc(N3CCc4c(nc(OCC5(CN(C)C)CC5)nc4N4CCC[C@@](C)(O)C4)C3)c12` [Example 199, (R)-1-(2-((1-((dimethylamino)methyl)cyclopropyl)methoxy)-7-(8-ethyl-7-fluoro-3-hydroxynaphthalen-1-yl)-5,6,7,8-tetrahydropyrido[3,4-d]pyrimidin-4-yl)-3-methylpiperidin-3-ol]: the IC50 on KRas^G12D is ≤ 2 nM; in the assay on H727 cells, pERK, 262 nM; in the assay on MKN1 cells, pERK it was 31 nM; in the assay with H460 cells, pERK, 242 nM; in the assay on HCT116 cells, pERK it was 441 nM; in the assay on ASPC1 cells, pERK, 43 nM. Further, the IC50 in the assay with A549 cells, pERK was 201 nM; in the assay on PSN1 cells, pERK it was 2500 nM; in the assay on H358 cells, pERK, 65 nM; on KRas^G12V, ≤ 2 nM; on KRas^G12R, ≤ 2 nM.
